l = locked nucleic acid (LNA); d = 2'-deoxy (DNA)
Experiments:
H1N1 (strain PR8) = type: cell-based, murine
M2 protein = type: cell-based, H1N1 (strain PR8)

LNA-AUG10: LNA (capitals)/DNA gAcTcAtCtT (GACTCATCTT; sugars from the 5' end dldldldldl, backbone and methylation of C not given here)
effectiveness in the viral HA RNA assay (H1N1 (strain PR8)): least effective
effectiveness in the M2 protein expression assay (M2 protein): least effective

2′OMe-AUG2: 2′OMe phosphorothioate oligomer, SEQ ID NO: 20 (ACCTCGGTTAGAAGACTCATCTTTC; all 2'-O-methyl, all phosphorothioate, T or U not given here)
relative effectiveness of the 2′OMe compounds (viral HA RNA; also observed for M2 protein) (H1N1 (strain PR8)): most effective

LNA-AUG12: LNA (capitals)/DNA CgGtTaGaAgAcTcAt (CGGTTAGAAGACTCAT; sugars from the 5' end ldldldldldldldld, backbone and methylation of C not given here)
reduction in viral HA RNA levels (H1N1 (strain PR8)): approximately 1.5 log

LNA-AUG1: LNA (capitals)/DNA CgGtTaGaAgAcTcAtCtTt (CGGTTAGAAGACTCATCTTT; sugars from the 5' end ldldldldldldldldldld, backbone and methylation of C not given here)
reduction in viral HA RNA levels (H1N1 (strain PR8)): approximately 3 log
effectiveness in the M2 protein expression assay (M2 protein): most effective
